Laboratory results: patent US20190015416A1, “BTK INHIBITORS FOR TREATING NEUROBLASTOMA” (The Chinese University of Hong Kong, priority 2017, published 2019)

What was measured:
SH-SY5Y tumor xenograft = details: SH-SY5Y xenograft in nude mice
Description: SH-SY 5Y cells were inoculated into flanks of nude mice. Animals were randomly divided into four groups when tumor xenograft reached 100 mm^3. […] (FIG. 7B) Quantifications of the tumor xenografts weight. The data are expressed as mean values±S.D. (n=4 in each group). **P<0.01. […] Mean±SD values are presented. **p<0.01; *p<0.05. […] (FIG. 7D) Cell proliferations in tumor xenografts were elucidated by immunohistochemical (IHC) analysis with Ki67 antibody. Scale bar represents 50 μm. (FIG. 7E) Quantification of Ki-67-positive cells within the xenografts. Ki-67-positive cells were quantitated from 5 random fields of each tumor xenograft under the microscope (400×) using Image-Pro PLUS V6.0.0.260 software. The values were normalized to those from vehicle treated mice. The data were presented as mean values±S.D. (n=4). **p<0.01; *p<0.05. Apoptosis markers such as cleaved PARP and cleaved Caspase 3 in xenograft tumors were examined by Western blot. […] The signals densities were analyzed by Image J. The relative signals of cleavage PARP to total PARP, cleaved Caspase 3 to tubulin were normalized to those from vehicle treated mice.
Neuroblastoma xenografts in nude mice were established by injection of SH-SY5Y cells.

NBL-S cells = assay: MTT proliferation assay; format: cell-based, human; details: 48 hr treatment or transfection, normalized to DMSO
Method: (§1) FIGS. 5A-5G: BTK signaling regulates cell proliferation. […] MTT were performed to measure the cell viability, the absorbance of treated cell groups was normalized to that of DMSO treated cells. (FIGS. 5C, 5D) MTT assay of NBL-S or SH-SY5Y cells transfected with BTK (FIG. 5C) or BTK siRNA (FIG. 5D) at 48 hr after transfection. […] (FIG. 5E) NBL-S cells and SH-SY5Y cells were treated with the inhibitors either separately or the combinations as indicated, and the treated cells were collected at different time points for MTT assay. The absorbance of treated cell groups was normalized to that of control cells treated with DMSO.
(§2) Neuroblastoma cells were seeded in 96-well plates at a concentration of 5×10^3 per well. After siRNA transfection or inhibitor treatment for 48 hours, 10 ul MTT ([…]) is added into every well followed by incubation for 4 hours. The absorbance was measured at A570 nm.

SH-SY5Y cells [1] = assay: MTT proliferation assay; format: cell-based, human; details: 48 hr treatment or transfection, normalized to DMSO
Method: as §1, §2

SH-SY5Y cells [2] = assay: Cell cycle distribution by flow cytometry; format: cell-based, human; details: 24 hr, Ibrutinib 2.5 μM, NVP-TAE684 100 nM, Crizotinib 250 nM, control 64.90%

Row | Structure (SMILES) | proliferation of neuroblastoma cells in vivo (Ki67 immunostaining) (SH-SY5Y tumor xenograft; 14 days treatment) | cell apoptosis in tumor xenograft (cleaved caspase 3 and PARP) (SH-SY5Y tumor xenograft; Western blot) | growth of neuroblastoma xenograft (SH-SY5Y tumor xenograft; intraperitoneal injection, 14 days) | cell proliferation (MTT) (NBL-S cells) | cell proliferation (MTT) (SH-SY5Y cells [1]) | cell portion at G0/G1 phase (SH-SY5Y cells [2])
1 | C[C@@H](Oc1cc(-c2cnn(C3CCNCC3)c2)cnc1N)c1c(Cl)ccc(F)c1Cl [Crizotinib] | inhibited proliferation | potentiated cell apoptosis | only moderately inhibited | can be inhibited | insensitive | –
2 | C=CC(=O)N1CCC[C@@H](n2nc(-c3ccc(Oc4ccccc4)cc3)c3c(N)ncnc32)C1 [Ibrutinib, 1-((R)-3-(4-amino-3-(4-phenoxyphenyl)-1H-pyrazolo[3,4-d]pyrimidin-1-yl)pi-peridin-1-yl)prop-2-en-1-one] | – | – | – | – | – | 73.8%
3 | COc1cc(N2CCC(N3CCN(C)CC3)CC2)ccc1Nc1ncc(Cl)c(Nc2ccccc2S(=O)(=O)C(C)C)n1 [NVP-TAE684] | – | – | – | can be inhibited | can be inhibited | –
